Measurements from patent US12590100B2, “Tetrahydro-spiroindoline-pyrrolopyrrole-triones inhibitors of the NRF2-β-TrCP interaction for use in the treatment of fatty liver disease” (Universidad Autonoma De Madrid, priority 2021, dated 2026).
Entries after “also recorded” stand apart in the source; their conditions may differ.

Legend:
[1] = tested on: NRF2-regulated genes; experiment: mRNA of NRF2-regulated genes in MEFs (qRT-PCR); assay type: cell-based, mouse; details: PHAR 10 μM, 8 h
Procedure: FIG. 4. PHAR activates the NRF2 pathway. MEFs in serum-depleted conditions were subjected to (A-C) 1 μM, 3 μM, or 10 μM of PHAR and 10 μM of SFN as a positive control for 16 h; or (D-F) 10 μM of PHAR for the indicated times. In both experiments, 0.1% DMSO was used as a vehicle. A), representative immunoblots of NRF2, HO1, KEAP1, LAMINB, and GAPDH as loading controls. B) and C), densitometric analysis of NRF2 and HO1 protein levels of the representative immunoblots depicted in (A), expressed as a ratio of NRF2/LAMINB or HO1/GAPDH. The data is depicted as means±SEM (n=3). Statistical analysis was performed with one-way ANOVA followed by the Bonferroni test to check inter-group differences. *p<0.05; ***p<0.001 vs. 0. D), representative immunoblots of NRF2, HO1, KEAP1, LAMINB, and GAPDH as loading controls. E) and F), Densitometric analysis of NRF2 and HO1 protein levels of the representative immunoblots of (D), expressed as a ratio of NRF2/LAMINB or HO1/GAPDH. The data is depicted as means±SEM (n=3). Statistical analysis was performed with one-way ANOVA followed by the Bonferroni test to check inter-group differences. *p<0.05; ***p<0.001 vs. 0. […] Luciferase activity was measured after 16 h of treatment. […] The mRNA levels of Hmox1, Nqo1, Aox1, Glc, and Gclm after 8 h of treatment were determined by means of pRT-PCR and normalized by means of average LaminB, Gapdh, and β-actin. […]

[2] = tested on: C57BL/6 mice treated with LPS; experiment: Inflammatory response in LPS-treated mice; assay type: in vivo, mouse
Procedure: FIG. 11. PHAR reduces the inflammatory response in LPS-treated mice. The mice were divided into 4 experimental groups (n=4). Experimental groups 1 and 3 were treated by IP route with vehicle (Tween-80+PBS, 1:13) and experimental groups 2 and 4 with 50 mg/kg of PHAR for 5 days. After the second-to-last administration of the compound, groups 3 and 4 were treated by IP route with 1 mg/kg of LPS for 24 h. Two hours after the last dose of PHAR and twenty-four hours after the administration of LPS, all the mice were sacrificed by extracting the liver protein and total RNA, A), representative immunoblots showing NRF2, HO1, and GAPDH protein levels as the liver extract loading control. B), densitometric analysis of NRF2 and HO1 protein levels of the representative immunoblots shown in (A), expressed as a ratio of NRF2/GAPDH or HO1/GAPDH. The data is depicted as means±SEM (n=4). Statistical analysis was performed with one-way ANOVA followed by the Bonferroni test to compare inter-group differences. **p<0.01; ***p<0.001 vs. vehicle. C), the mRNA levels of Il1β, Il6, and Tnfα were determined by means of qRT-PCR and normalized by means of average Gapdh, Tbp, and β-actin. The data is depicted as mean±SEM (n=4). Statistical analysis was performed with one-way ANOVA followed by the Bonferroni test to check inter-group differences. ***p<0.001 vs. LPS. D) Representative images of hematoxylin and eosin (H&E) staining of mouse liver and immunohistochemical F4/80 staining of inflammatory liver macrophages (Kupffer cells).
To that end, 16 wild-type C57BL/6 mice were divided into 4 experimental groups: vehicle (experimental group 1), PHAR (experimental group 2), LPS (3), and LPS+PHAR (4). After obtaining results as promising as those described in detail in Example 1.6, the inventors decided to carry out the same experimental protocol. Briefly, the mice were treated daily by IP route with 50 mg/kg of PHAR (experimental groups 2 and 4) or vehicle (groups 1 and 3). Two hours after the second-to-last administration, experimental groups 3 and 4 were treated by IP route with […] of LPS. Lastly, the last dose of PHAR was administered on the last day and 24 h after the administration of LPS, all the mice were sacrificed by extracting the liver protein and total RNA.

[3] = mice, IP 50 mg/kg PHAR daily for 5 days

Structure (SMILES): O=C1[C@@H]2[C@H](Cc3c[nH]c4ccccc34)N[C@]3(C(=O)Nc4ccc(Cl)cc43)[C@@H]2C(=O)N1c1ccc2c(c1)OCCO2 [PHAR]
- transcripts of Hmox1, Nqo1, Aox1, Gclc, Gclm [1]: increase in the corresponding transcripts was observed in all the cases
- inflammatory activation of hepatic macrophages (Kupffer cells), F4/80 immunostaining ([2]; LPS+PHAR-treated versus LPS-treated mice): reduction in F4/80 staining; also recorded: greatly attenuated
- liver mRNA of pro-inflammatory cytokines (Il1β, Il6, Tnfα) ([2]; LPS-treated mice, prior IP 50 mg/kg PHAR): significant reduction in the production of said cytokines
- liver HO-1 levels [2, 3]: induction mediated by the compound could be clearly seen
- liver NRF2 levels [2, 3]: increase in NRF2 levels
- liver structure (H&E) ([2]; mice, IP 50 mg/kg PHAR for 5 days): remains unaltered
- liver NRF2 and HO-1 levels with combined treatment PHAR+LPS ([2]; mice, IP 50 mg/kg PHAR for 5 days plus LPS 24 h): synergistic effect
